Data taken from patent US8637683B2, “Macrocyclic lactone derivatives for the treatment of cancer” (Piramal Enterprises Limited, priority 2009, dated 2014).
≈ marks a conversion by molar mass, not a printed value.

Columns and labels:
Assay type in all cases: cell-based, human
[1] = system: BXF 1352L; assay: Monolayer assay (modified propidium iodide), BXF 1352L; conditions: Bladder, 4 days of treatment
Description: (§1) Oncotest GmbH, Germany's proprietary tumor cell line panel comprises 40 cell lines. These cell lines were derived from 15 different tumor histotypes, each represented by 1 to 6 different cell lines. Cell lines were established from cancer of the bladder (3), colon (4), head and neck (1), lung (6), breast (3), pancreas (3), prostate (4), ovary (2), kidney (3), liver (1), stomach (1) and the uteri body (1), as well as from melanoma (3), sarcoma (2) and pleuramesothelioma (3). Out of these 40 cell lines, 24 cell lines were established at Oncotest, from patient-derived tumor xenografts. […]
(§2) Stock solutions of the test compounds (330 μg/mL in DMSO) were prepared and stored in small aliquots (200 μL) at −20° C. […] Each concentration was evaluated in triplicate. […]
(§3) Cells were plated in 96-well flat-bottom microtiter plates at a cell density of 4,000 to 10,000 cells/well. […] To measure the viable cell number, the remaining adherent cells were killed and permeabilized by repeated freezing and thawing and PI fluorescence was measured using the Cytofluor 4000 microplate reader (excitation λ=530 nm, emission λ=620 nm), which was a measure for the number of cells which survived treatment. […] IC-values were calculated based on the principle of linear two-point curve fit. […]

[2] = system: T 24; assay: Monolayer assay (modified propidium iodide), T 24; conditions: T 24, Bladder, 4 days of treatment
Description: (§4) Oncotest GmbH, Germany's proprietary tumor cell line panel comprises 40 cell lines. These cell lines were derived from 15 different tumor histotypes, each represented by 1 to 6 different cell lines. Cell lines were established from cancer of the bladder (3), colon (4), head and neck (1), lung (6), breast (3), pancreas (3), prostate (4), ovary (2), kidney (3), liver (1), stomach (1) and the uteri body (1), as well as from melanoma (3), sarcoma (2) and pleuramesothelioma (3). Out of these 40 cell lines, 24 cell lines were established at Oncotest, from patient-derived tumor xenografts. The other 16 cell lines were either provided by the NCI (Bethesda; MD, USA) or were purchased from ATCC (Rockville, Md., USA) or DSMZ (Braunschweig, Germany).
(§5) Cell lines were routinely passaged once or twice weekly and maintained in culture for upto 20 passages. All cells were grown at 37° C. in a humidified atmosphere with 5% CO2 in RPMI 1640 medium supplemented with 10% (v/v) fetal calf serum (FCS) and 0.1 mg/mL gentamicin (medium and all other components from PAA, Cölbe, Germany). […]
as §2
as §3, with “treatment. Pharmacological effects on cell proliferation and survival were expressed as Test/Control×100 (% T/C) values, with T and C representing the fluorescence read-outs for wells with and without test compound, respectively, i.e. T/C represents the ratio of viable cell numbers following incubation of cell line with/without test compound.” for “treatment.”

[3] = system: GXF 251 L; assay: Monolayer assay (modified propidium iodide), GXF 251 L; conditions: Gastric, 4 days of treatment
Description: as §1, §2, §3

[4] = system: CAL 27; assay: Monolayer assay (modified propidium iodide), CAL 27; conditions: CAL 27, Head and Neck, 4 days of treatment
Description: as §1, §2, §3

[5] = system: LIXF 575L; assay: Monolayer assay (modified propidium iodide), LIXF 575L; conditions: Liver, 4 days of treatment
Description: as §1, §2, §3

[6] = system: LXF 526L; assay: Monolayer assay (modified propidium iodide), LXF 526L; conditions: Lung, 4 days of treatment
Description: as §4, §5, §2
as §3, with “treatment. Pharmacological effects on cell proliferation and survival were expressed as Test/Control×100 (% T/C) values, with T and C representing the fluorescence read-outs for wells with and without test compound, respectively, i.e. T/C represents the ratio of viable cell numbers following incubation of cell line with/without test compound.” for “treatment.”

[7] = system: UXF 1138L; assay: Monolayer assay (modified propidium iodide), UXF 1138L; conditions: Uterus, 4 days of treatment
Description: as §1, §2, §3

In the case of `C/C=C/C(O)C(C)/C=C/C(=N\O)C(C)C(O)C(C)C1OC(=O)/C(OC)=C/C(C)=C/C(C)C(O)C(CC)C(O)C(C)C/C(C)=C/C=C/C1OC` (centres unmarked) [Example 7, (3Z,5E,13E,15E)-18-((5Z,6E,10E)-3,9-Dihydroxy-5-(hydroxymino)-4,8-dimethyldodeca-6,10-dien-2-yl)-9-ethyl-8,10-dihydroxy-3,17-dimethoxy-5,7,11,13-tetramethyl oxacyclooctadeca-3,5,13,15-tetraen-2-one], the IC70 [1] is reported as 2.0 ng/mL (≈ 2.9 nM), the IC50 ([1]; Homo sapiens, 96 h) is reported as 0.2 ng/mL (≈ 0.29 nM) and the IC50 ([2]; Homo sapiens, 96 h) is reported as < 0.1 ng/mL. For the same compound, the IC70 [2] was 0.3 ng/mL (≈ 0.435 nM), the IC70 [3] was 6.0 ng/mL (≈ 8.7 nM) and the IC50 ([3]; Homo sapiens, 96 h) was 1 ng/mL (≈ 1.45 nM). For the same compound, the IC70 [4] was 1.0 ng/mL (≈ 1.45 nM), the IC50 ([4]; Homo sapiens, 96 h) was < 0.1 ng/mL and the IC50 ([5]; Homo sapiens, 96 h) was < 0.1 ng/mL. For the same compound, the IC70 [5] was 2.0 ng/mL (≈ 2.9 nM), the IC50 ([6]; Homo sapiens, 96 h) was < 0.1 ng/mL and the IC70 [6] was 0.1 ng/mL (≈ 0.145 nM). The IC50 ([7]; Homo sapiens, 96 h) was 5 ng/mL (≈ 7.25 nM) and the IC70 [7] was 11.0 ng/mL (≈ 15.9 nM).
